Reference: article PMC8066341, “Chemical Profiles, Anticancer, and Anti-Aging Activities of Essential Oils of Pluchea dioscoridis (L.) DC. and Erigeron bonariensis L” (Plants, 2021)
≈ marks a conversion by molar mass, not a printed value.

What was measured:
[1] = target: T1, mushroom tyrosinase; test: dopachrome formation, absorbance […] nm; assay type: biochemical; details: L-tyrosine substrate (0.85 mM solution); phosphate pH 6.8; 15 min preincubation at 25 °C
T1 construct: gene PPO1

[2] = target: T2, Porcine pancreatic elastase (Sus scrofa, UniProt P00772); test: N-succinyl-Ala-Ala-Ala-p-nitroanilide hydrolysis, absorbance […] nm; assay type: biochemical
T2 construct: gene CELA1; native enzyme from pancreas (commercial)

[3] = target: T3, Collagenase from Clostridium histolyticum (ChC); test: FALGPA hydrolysis, microplate absorbance; assay type: biochemical, Hathewaya histolytica; details: 50 mM tricine pH 7.5, 400 mM NaCl, 10 mM CaCl2; 15 min preincubation; FALGPA substrate
T3 construct: gene colG

T2 sequence (P00772 27-266): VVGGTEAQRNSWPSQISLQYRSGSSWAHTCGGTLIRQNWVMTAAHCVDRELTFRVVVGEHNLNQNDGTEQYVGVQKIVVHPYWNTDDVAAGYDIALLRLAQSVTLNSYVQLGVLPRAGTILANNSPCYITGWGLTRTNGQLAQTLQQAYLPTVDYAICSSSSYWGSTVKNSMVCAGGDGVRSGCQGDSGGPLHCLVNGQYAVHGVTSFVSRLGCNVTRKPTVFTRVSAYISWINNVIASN

O=C(O[C@@H]1Cc2c(O)cc(O)cc2O[C@@H]1c1cc(O)c(O)c(O)c1)c1cc(O)c(O)c(O)c1 [epigallocatechin gallate]
IC50 [1]: 14.37 µg/mL (≈ 31.3 µM)
IC50 [2]: 22.4 µM
IC50 [3]: 1.56 µg/mL (≈ 3.4 µM)
